Reference: PubChem BioAssay AID1645861 (Buhrlage Lab, Dana-Farber Cancer Institute and Novartis …, 2021)
Activity calls are given as the source filed them.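 Rule for the calls: active = compounds whose peak USP7 inhibition across the dose series reached 30% or more; inactive = the rest.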

Molecular target: Ubiquitin carboxyl-terminal hydrolase 7 (Homo sapiens) (UniProt Q93009)
Test: Ubiquitin-specific protease 7 DUB inhibitors, concentration-effect, biochemical, validation of primary hits (AID 1645861)
Conditions: purified USP7, Ub-rhodamine cleavage fluorescence, 60 min

Ubiquitin carboxyl-terminal hydrolase 7 (Homo sapiens), sequence (Q93009 whole entry, looked up): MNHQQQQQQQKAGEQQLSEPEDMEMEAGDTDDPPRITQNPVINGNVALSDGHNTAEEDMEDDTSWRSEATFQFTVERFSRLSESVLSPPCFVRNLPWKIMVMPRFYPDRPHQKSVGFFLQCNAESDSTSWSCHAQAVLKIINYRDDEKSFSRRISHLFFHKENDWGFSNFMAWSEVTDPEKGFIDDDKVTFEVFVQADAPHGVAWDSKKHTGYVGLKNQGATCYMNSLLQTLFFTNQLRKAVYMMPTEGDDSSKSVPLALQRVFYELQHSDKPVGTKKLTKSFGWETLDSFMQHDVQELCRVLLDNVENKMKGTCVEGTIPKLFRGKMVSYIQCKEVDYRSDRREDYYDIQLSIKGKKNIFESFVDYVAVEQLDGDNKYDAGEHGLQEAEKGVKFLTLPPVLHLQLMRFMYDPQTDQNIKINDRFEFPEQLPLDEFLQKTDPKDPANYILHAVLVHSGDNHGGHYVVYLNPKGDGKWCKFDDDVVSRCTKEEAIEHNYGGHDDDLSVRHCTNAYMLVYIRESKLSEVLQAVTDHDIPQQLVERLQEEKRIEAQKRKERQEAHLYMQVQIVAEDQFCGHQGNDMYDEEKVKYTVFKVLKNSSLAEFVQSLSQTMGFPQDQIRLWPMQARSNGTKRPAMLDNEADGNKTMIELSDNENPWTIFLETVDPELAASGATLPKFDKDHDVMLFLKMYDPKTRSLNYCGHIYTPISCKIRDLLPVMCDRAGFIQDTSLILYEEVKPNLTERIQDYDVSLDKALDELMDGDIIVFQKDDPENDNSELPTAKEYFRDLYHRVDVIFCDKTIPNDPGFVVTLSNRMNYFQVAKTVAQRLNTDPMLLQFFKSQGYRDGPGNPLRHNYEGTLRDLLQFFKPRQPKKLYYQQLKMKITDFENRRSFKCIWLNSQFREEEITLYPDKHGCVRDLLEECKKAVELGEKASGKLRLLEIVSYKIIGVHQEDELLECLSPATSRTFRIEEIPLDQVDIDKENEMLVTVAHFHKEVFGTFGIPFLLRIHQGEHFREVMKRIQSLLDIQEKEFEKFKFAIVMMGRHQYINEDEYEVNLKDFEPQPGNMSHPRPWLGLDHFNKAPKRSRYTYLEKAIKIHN

| IC50 | Compound |
| --- | --- |
| > 50 µM (inactive) | O=C(Cn1c(-c2ccccc2)ncc(C(=O)NC2CC2)c1=O)Nc1ccccc1 |
| > 50 µM (inactive) | Cc1ccc(Nc2nc(O)c(CC(=O)Nc3cccc(Cl)c3C)s2)cc1C |
| > 50 µM (inactive) | Cc1cc(=O)n2c3c(c4c(cc13)c(CO)cc(=O)n4C)OC2 |
| > 50 µM (inactive) | O=C(Cn1cc(C(=O)C(F)(F)F)c2cc(Br)ccc21)N1CCc2ccccc21 |
| > 50 µM (inactive) | COC(=O)c1ccc(N2CCN(C(C)=O)CC2)c(NC(=O)COc2ccc([N+](=O)[O-])cc2)c1 |
| > 50 µM (inactive) | CC(C)Cc1ccc(-c2cc(-c3ccc(C(F)(F)F)cc3)c(C#N)c(=O)[nH]2)cc1 |
| > 50 µM (inactive) | COc1ccc(-c2cc(-c3ccccc3)nc(SCC(N)=O)c2C#N)cc1OC |
| 30.6 µM | O=C1C(=O)N(c2nc3ccc(F)cc3s2)C(c2ccc(F)cc2)/C1=C(\O)c1ccc(F)cc1 (stereo not drawn) |
| > 50 µM (inactive) | COC(=O)C1=CC(OC)=C(Cl)C(=O)C12OC(=O)c1c(O)cc(C)cc1O2 (stereo not drawn) |
| > 50 µM (inactive) | Cc1ccc(NC(=O)CSc2nnc(-c3n[nH]c4c3CCC4)n2N)cc1C |
| 47.4 µM | COc1c(O)cc(CC(=O)O)c(C(C)=O)c1O |
| 12.9 µM | COc1cc(C)cc2c1C(=O)c1c(cc(O)c(Cl)c1O)C2=O |
| > 50 µM (inactive) | Cc1cccc(C)c1NC(=O)CN1C(=O)CC(c2ccccc2)=Nc2ccccc21 |
| 45.6 µM | O=C1c2ccccc2C(=O)c2c(O)c(O)cc(O)c21 |
| > 50 µM (inactive) | Cc1ccc(NC(=O)Cn2cncc(-c3nc(-c4ccccc4)cs3)c2=O)cc1F |
| > 50 µM (inactive) | O=C(CCc1ccc(S(=O)(=O)N2CCOCC2)cc1)OCC(=O)c1ccc(-c2ccccc2)cc1 |
| > 50 µM (inactive) | COc1cc2cc3c(c(O)c2c(O)c1-c1c(OC)cc2cc4c(c(O)c2c1O)C(=O)OC1CC(C)OC41)C(=O)OC1CC(C)OC31 (stereo not drawn) |
| > 50 µM (inactive) | COc1ccc(CCNC(=O)Cn2c(=O)c3sccc3n(Cc3cccc([N+](=O)[O-])c3)c2=O)cc1OC |
| > 50 µM (inactive) | O=C(CCCn1c(=O)[nH]c2cc(Cl)ccc2c1=O)NCCCN1CCCC1=O |
| > 50 µM (inactive) | COCCn1c(=O)[nH]c2cc(C(=O)NCCNc3ccc([N+](=O)[O-])cc3C#N)ccc2c1=O |
| > 50 µM (inactive) | COc1ccc2cc(C(=O)N3CCC(C(C)C(=O)NCc4cccc(F)c4)CC3)[nH]c2c1 (stereo not drawn) |
| 9.02 µM | CC(C)=CCC(O)C1=CC(=O)c2c(O)ccc(O)c2C1=O (stereo not drawn) |

| IC50 | Compound |
| --- | --- |
| > 50 µM (inactive) | Oc1cccc2nc3c(O)cccc3nc12 |
| > 50 µM (inactive) | O=C(Nc1ccc(F)cc1)Nc1ccccc1OCc1cc(=O)n2ccccc2n1 |
| > 50 µM (inactive) | C[C@H](NC(=O)Cc1ccccc1F)c1nc2cc(-c3ccccc3F)ncn2n1 |
| 42.7 µM | Cc1ccc(N2CC(c3nc4ccccc4n3CCOc3cccc(C)c3)CC2=O)cc1 (stereo not drawn) |
| > 50 µM (inactive) | Nc1ccc2oc(-c3cccc(-c4nc5cc(N)ccc5o4)n3)nc2c1 |
| > 50 µM (inactive) | Cc1cc(=O)n(CC(=O)Nc2ccccc2C)c(Nc2ccc(F)cc2)n1 |
| 35.1 µM | Cn1c2ccccc2c(=O)c2c(=O)n(-c3cccc(Cl)c3)c(-c3cccs3)nc21 |
| > 50 µM (inactive) | O=C(Cn1c(=O)n(CCC(=O)N2CCc3ccccc3C2)c(=O)c2ccccc21)NCc1ccccc1Cl |
| 35.7 µM | O=C(Nc1ccccc1-c1nc2ccccc2[nH]1)c1sc2ccccc2c1Cl |
| > 50 µM (inactive) | O=C(COc1ccc(N2CC(C(=O)NCc3ccc4c(c3)OCO4)CC2=O)cc1)Nc1ccc(F)cc1 (stereo not drawn) |
| > 50 µM (inactive) | CC1=C(Cn2c3cccc(=O)c-3nc3ccccc32)CCC(C)(C)C1 |
| 31.4 µM | O=c1ccc(-c2cc3ccccc3o2)cn1Cc1ccccc1-c1ccccc1 |
| > 50 µM (inactive) | COc1ccc(Nc2nc3c(S(=O)(=O)c4ccc(C)cc4)nnn3c3ccsc23)c(OC)c1 |
| > 50 µM (inactive) | COc1ccc(NC(=O)Cn2c(=O)n(CCCC(=O)NC3CCCC3)c(=O)c3cc(Cl)ccc32)c(OC)c1 |
| > 50 µM (inactive) | CCOC(=O)N1CCN(C(=O)c2ccc(NCc3ccc(F)cc3)c(S(=O)(=O)Nc3cccc(C(F)(F)F)c3)c2)CC1 |
| > 50 µM (inactive) | Cc1ccc(-c2cc(C(F)F)n3ncc(C(=O)Nc4ccc(O)cc4)c3n2)cc1 |
| > 50 µM (inactive) | Cc1ccc(NC(=O)Cn2c(=O)n(CC(=O)NCc3ccco3)c(=O)c3ccccc32)cc1C |
| > 50 µM (inactive) | O=C(CCn1c(=O)c2ccccc2n(Cc2ccc(F)cc2Cl)c1=O)NCc1ccco1 |
| > 50 µM (inactive) | O=C1C=C(O)c2c(O)cccc2C1=O |
| > 50 µM (inactive) | Cc1cccc(-n2ccnc(SCC(=O)Nc3ccc(Cl)cc3F)c2=O)c1 |
| 23.2 µM | CCC1OC(O)(C(C)C(O)C(C)C2OC(=O)/C(C)=C/C(C)=CC(C)C(O)C(C)C/C(C)=C/C=C/C2OC)CC(OC(=O)/C=C/C(=O)NC2=C(O)CCC2=O)C1C (stereo not drawn) |
